Assays:
[1] = tested on: PK-1 pancreatic cancer cells; test: Apoptosis by flow cytometry with annexin V staining, PK-1; type: cell-based, human; details: 50 mM
Experimental: Apoptosis was evaluated by flow cytometry using annexin V staining.

[2] = known (PTL 2); cited from earlier work
[3] = tested on: cultured human PK-1 pancreatic cancer cells; test: Cell cycle time course after nocodazole arrest and release, PK-1; type: cell-based; details: 50 mM, after removal of 50 nM nocodazole (12 hours)
Experimental: Culturing was carried out for 12 hours in the presence of 50 nM nocodazole, and the cell cycle was arrested. The nocodazole was removed to restart the cell cycle, while administering medium alone (control) or D-glucose or D-allose (50 mM), after which samples were periodically taken and the cell cycle ratio was analyzed by flow cytometry.
Shown is the cell cycle ratio (G0/1 phase, S phase and G2/M phase) for cultured human pancreatic cancer cells PK-1 cultured with the schedule in FIG. 8.
Culturing was carried out according to the schedule in FIG. 8, except for administering D-mannitol or allitol instead of D-glucose or D-allose.
First, 50 nM of nocodazole was reacted with cultured human PK-1 pancreatic cancer cells for 12 hours to preemptively stop the cell cycle. The nocodazole was then removed from the culture solution to begin restart of the cell cycle, thus allowing periodic observation of the cell cycle from a reset state. The effect of D-allose on the speed of the cell cycle was investigated in detail under these experimental conditions.
Considering the possibility that the growth inhibition effect on cultured human PK-1 pancreatic cancer cells by allitol may be via arrest of the cell cycle, changes in the cell cycle were identified using flow cytometry (FACS analysis) by the same method as Example 2.

PK-1 cells = test: WST-1 cell proliferation assay, PK-1; type: cell-based, human; details: 48 hours
Experimental: PK-1 cells, as cultured human pancreatic cancer cells, were cultured for 48 hours with addition of D-allose or D-glucose at 25 or 50 mM concentration, and then analyzed by WST-1 assay to compare the effects on cell proliferation. PK-1 cells, as cultured human pancreatic cancer cells, were cultured for 48 hours with addition of allitol or D-mannitol at 50 mM concentration, and then analyzed by WST-1 assay to compare the effects on cell proliferation.

[4] = tested on: glycolysis in cultured human PK-1 pancreatic cancer cells; test: Glycolysis evaluation with XFe24 extracellular flux analyzer (OCR, ECAR); type: cell-based
Description: In the same manner as Example 2, an XFe24 extracellular flux analyzer (24-well) by Agilent Technologies (previously Seahorse Bioscience) was used to measure the oxygen consumption rate (OCR value) and extracellular acidification rate (ECAR value) of cultured human PK-1 pancreatic cancer cells and examine effects on the glycolysis.

cancer cell lines = details: reported (NPL 5); cited from earlier work
U87 cells [5] = test: WST-1 cell proliferation assay, U87; type: cell-based, human; details: 48 hours, 3, 5, 10, 30 or 50 mM
Experimental: (§1) The cell proliferation ability in medium alone (control) and 48 hours after administration of D-glucose or D-allose was compared by WST-1 assay. U251 cells or U87 cells, as cultured human brain tumor cells, were cultured for 48 hours without administration of a sugar (control) or with addition of D-allose or D-glucose at different concentrations (3, 5, 10, 30 or 50 mM), and then analyzed by WST-1 assay to compare the effects on cell proliferation.

U251 cells [6] = test: Cell cycle evaluation by PI/RNase flow cytometry, U251; type: cell-based, human; details: 50 mM, 24 hours
Experimental: (§2) The proportion of cells in each cell cycle in medium alone (control) and 48 hours after administration of D-glucose or D-allose was compared by flow cytometry analysis.
(§3) Considering the possibility that growth inhibition of brain tumor cells may be caused by arrest of the cell cycle by D-allose, flow cytometry (FACS analysis) was carried out to identify changes in the cell cycle (see Yamaguchi F, Takata M. Kamitori K, et al. Rare sugar D-allose induces specific up-regulation of TXNIP and subsequent G1 cell cycle arrest in hepatocellular carcinoma cells by stabilization of p27kip1. Int J Oncol. 2008; 32(2):377-385). Specifically, the cell cycle was evaluated by Propidium Iodide (PI)/RNase Staining Solution (Cell Signaling Technology). The cells were cultured for 24 hours using DMEM, 50 mM D-glucose or 50 mM D-allose. The cultured cells were then recovered using trypsin and washed twice with PBS, and then fixed with 70% ethanol overnight at −20° C. After washing with PBS, the cells were stained in a dark room at room temperature for 30 minutes using 500 μl of PI reagent, washed with PBS, and then monitored for luminescence at 617 nm by flow cytometry. The data were analyzed using Kaluza analysis software (Ver. 1.2. Beckman Coulter), and the effects on the cell cycle were evaluated based on changes in the cell distribution rate at each phase of the cell cycle.

[7] = tested on: human pancreatic cancer cells PANC-1; test: Metabolome analysis of central energy metabolism (C-SCOPE), PANC-1; type: cell-based; details: 50 mM, 12 hours
Experimental: (§4) Cultured human pancreatic cancer cells PK-1 and PANC-1 (5.0×10^6) were cultured for 12 hours at 37° C. in a 5% CO2 atmosphere, either without addition of a sugar (control) or with addition of 50 mM D-glucose or D-allose. Samples of both cells were then prepared according to the protocol provided by Human Metabolome Technologies, Inc. (Tsuruoka City, Yamagata Prefecture. Japan) and measured for 116 substances (see Table 1) related to central energy metabolism (glycolysis, TCA cycle, amino acid metabolism and nucleic acid metabolism) using an Analysis Service provided by the same company (C-SCOPE (https://humanmetabolome.com/jpn/service/analysis/cscope/)), after which principal component analysis (PCA) (FIG. 15), heat map analysis (FIGS. 16 to 19) and pathway map analysis (FIG. 20) were carried out based on the measurement results.

[8] = tested on: human pancreatic cancer cells PK-1; test: Metabolome analysis of central energy metabolism (C-SCOPE), PK-1; type: cell-based; details: 50 mM, 12 hours
Experimental: as §4

brain tumor cells = test: CytoTell fluorogenic probe cell proliferation monitoring; type: cell-based, human; details: 50 mM; 96 hours after 24 hours probe uptake
Experimental: Next, CytoTell™, a fluorogenic probe for flow cytometry which is recently being used as a cell proliferation monitoring reagent, was taken up into the brain tumor cells for 24 hours, and the cells were allowed to stand for 96 hours either without administration of a sugar (control) or with administration of 50 mM D-glucose and 50 mM D-allose, and attenuation of the fluorogenic probe intensity in the cells was evaluated (FIG. 4-1).

[9] = tested on: PK-1 pancreatic cancer cells; test: Cell cycle evaluation by PI/RNase flow cytometry, PK-1; type: cell-based, human; details: 50 mM
Experimental: Considering the possibility that the growth inhibition effect on cultured human PK-1 pancreatic cancer cells by D-allose may be via arrest of the cell cycle, changes in the cell cycle were identified using flow cytometry (FACS analysis). Specifically, PK-1 cells were brought to a serum-starved state overnight and then fixed with 70% ethanol overnight at −20° C. For staining of the cellular DNA, the cells obtained as a centrifuged pellet were resuspended in 450 μL of propidium iodide (PI)/RNase solution (Cell Signaling Technology, Danvers, MA, USA), and cultured in a dark environment at room temperature for 30 minutes. Analysis was then carried out with a flow cytometer (Cytomics FC500 flow cytometry system, Beckman Coulter, Indianapolis, IN, USA) using 10,000 cells per sample.

U87 cells [10] = test: Apoptosis by flow cytometry after annexin V staining, U87; type: cell-based, human; details: doses that induce growth inhibition, 48 hours
Experimental: (§5) The proportion of apoptotic cells in medium alone (control) and 48 hours after administration of D-glucose or D-allose was compared by flow cytometry analysis of the cells stained with annexin V. In order to elucidate the mechanism of the growth inhibition effect on brain tumor cells by D-allose, the cells were evaluated for apoptosis by flow cytometry after annexin V staining (FIG. 2).

[11] = tested on: human pancreatic cancer cell line PK-1; test: Cell cycle visualization with tFucci(CA)5, PK-1; type: cell-based; details: 50 mm, 0 to 84 hours
Description: The human pancreatic cancer cell line PK-1 was transfected with tFucci(CA)5 (Plasmid #153521) (see Ando R., et al., Two new coral fluorescent proteins of distinct colors for sharp visualization of cell-cycle progression, bioRYiv, 2020, https://www.biorxiv.org/content/10.1101/2020.03.30.015156v2) purchased from Addgene (Massachusetts, USA), for cell cycle visualization. […] The cells were used to observe effects on the cell cycle of the human pancreatic cancer cell line PK-1 with and without addition of D-allose (50 mm).

U251 cells [12] = test: Apoptosis by flow cytometry after annexin V staining, U251; type: cell-based, human; details: doses that induce growth inhibition, 48 hours
Experimental: as §5

U87 cells [13] = test: Cell cycle evaluation by PI/RNase flow cytometry, U87; type: cell-based, human; details: 50 mM, 24 hours
Experimental: as §2, §3

cell cycle = details: reported (PTL 1); cited from earlier work
U251 cells [14] = test: WST-1 cell proliferation assay, U251; type: cell-based, human; details: 48 hours, 3, 5, 10, 30 or 50 mM
Experimental: as §1

For `OC[C@@H](O)[C@@H](O)[C@@H](O)[C@@H](O)CO` [allitol, (2S,3S,4R,5R)-hexane-1,2,3,4,5,6-hexaol], the “apoptosis (annexin V)” value [1] is listed as “no apoptosis had occurred”, the fat accumulation [2] is listed as “fat accumulation-inhibiting effect” and the “transition from the G0/1 phase to the S phase” value [3] is listed as “significantly delayed the transition from the G0/1 phase to the S phase”. The “transition to the G2/M phase” value [3] was “This delaying effect was also exhibited for transition to the G2/M phase”, the “cell proliferation (WST-1)” value (PK-1 cells; 50 mM) was “exhibited a cell proliferation inhibiting effect” and the “glycolysis in the cells” value ([4]; 50 mM for 18 hours) was “inhibited the glycolysis”. The “glycolytic capacity, or its reserve capacity” value ([4]; 50 mM for 18 hours) was “significantly lowered”.
For `O=C[C@H](O)[C@H](O)[C@H](O)[C@H](O)CO` [D-allose], the “proliferation of cancer cell lines” value (cancer cell lines) is listed as “can inhibit proliferation of cancer cell lines”, the “cell proliferation ability (WST-1)” value (U87 cells [5]) is listed as “dose-dependent cell growth inhibitory effect” and the “apoptosis (annexin V)” value [1] is listed as “apoptosis was not produced”. The “arrest of the cell cycle” value (U251 cells [6]) was “did not induce arrest of the cell cycle”, the “fructose 1,6-diphosphate” value [7] was “reducing” and the “fructose 1-phosphate in the polyol pathway” value [7] was “increased”. For the same compound, the “fructose 6-phosphate in the glycolysis” value [7] was “increased”, the “glucose 6-phosphate in the glycolysis” value [7] was “increased” and the “intracellular metabolic profile (PCA, heat map)” value [7] was “significantly altered intracellular metabolic profile”. For the same compound, the “fructose 1,6-diphosphate” value [8] was “reducing”, the “fructose 1-phosphate in the polyol pathway” value [8] was “increased” and the “fructose 6-phosphate in the glycolysis” value [8] was “increased”. The “glucose 6-phosphate in the glycolysis” value [8] was “increased”, the “intracellular metabolic profile (PCA, heat map)” value [8] was “significantly altered intracellular metabolic profile” and the “attenuation of fluorogenic probe intensity in the cells” value (brain tumor cells) was “notably inhibited attenuation of fluorescent probe intensity”. For the same compound, the G0/G1 phase ratio [9] was “slight increase”, the “induction of apoptosis (annexin V)” value (U87 cells [10]) was “apoptosis is not induced” and the “effect on the cell cycle (tFucci(CA)5 fluorescence microscopy)” value [11] was “delay the cell cycle, primarily at transition from the G1 phase to the S phase”. For the same compound, the “induction of apoptosis (annexin V)” value (U251 cells [12]) was “apoptosis is not induced”, the “arrest of the cell cycle” value (U87 cells [13]) was “did not induce arrest of the cell cycle” and the “transition from the G0/1 phase to the S phase” value [3] was “significant delaying of transition from the G0/I phase to the S phase”. The “transition to the G2/M phase” value [3] was “This delaying effect was also exhibited for transition to the G2/M phase”, the “G2 phase of the cell cycle” value (cell cycle) was “delaying the “G2 phase” of the cell cycle” and the “cell proliferation (WST-1)” value (PK-1 cells; 25 or 50 mM) was “exhibited a cell growth inhibitory effect”. For the same compound, the “glycolysis in the cells” value ([4]; 50 mM for 16 hours) was “notably inhibited the glycolysis”, the “glycolytic capacity, or its reserve capacity” value ([4]; 50 mM for 16 hours) was “lowered” and the “cell proliferation ability (WST-1)” value (U251 cells [14]) was “dose-dependent cell growth inhibitory effect”.
